According to patent US4659710A, “1,7-Naphthyridine derivatives and pharmaceutical compositions” (SS Pharmaceutical Co., Ltd., priority 1985, dated 1987):

Legend:
[1] = test system: carrageenan-induced swelling of the right hind paw; assay: Anti-inflammatory effects: inhibition of carrageenan-induced hind paw swelling; assay type: in vivo, Wistar rats; settings: oral, 60 min before carrageenan, foot volume 3 hours later
Method: After fasting a group of five Wistar rats of 6 weeks old for 18 hours, each test compound dissolved or suspended in a 0.5% solution of sodium carboxymethylcellulose (CMC-Na) was administered orally. Sixty minutes after the administration of the test compound, 0.1 ml of a 1% carrageenan solution was injected into subplanter surface of the right hind paw of each rat. The foot volume (A) was measured 3 hours later. From the foot volume (B) before the administration of carrageenan, the percent swelling ((A-B)/B×100) was calculated and compared with those of control rats.
Inhibition (%)= [formula]

[2] = test system: ouabain-induced arrhythmia; assay: Antiarrhythmic effects: amount of ouabain required to induce arrhythmia; assay type: in vivo, Hartley male guinea pigs; settings: 10 mg/kg i.v., ouabain infused at 4 μg/kg/min; for amount of ouabain required to induce unequal intervals of R-R wave: control 59.2; for amount of ouabain required to induce ventricular extrasystole or A-V block: control 80.5; for amount of ouabain required to induce ventricular extrasystole or A-V block / amount of ouabain required to induce ventricular fibrillation / amount of ouabain required to induce cardiac arrest: in µg/kg (unit assumed); for amount of ouabain required to induce ventricular fibrillation: control 170.0; for amount of ouabain required to induce cardiac arrest: control 246.6
Method: Using a group of five Hartley male guinea pigs (body weights: 530-990 g), their electrocardiograms were recorded from a limbic lead II under anesthesia with urethane 1.2 g/kg i.p. to investigate the antiarrhythmic effects. Namely, each test compound dissolved in 0.1N hydrochloric acid and diluted with a physiological saline was intravenously administered at a dose of 10 mg/kg. Immediately after the administration of the test compound, ouabain was continuously infused at a rate of 4 μg/kg/min through a polyethylene cannula inserted in the jugular vein of the guinea pigs so as to induce arrhythmia. The antiarrhythmic effects were judged from the amount of ouabain required to induce unequal intervals of R-R wave, ventricular extrasystole or A-V block, ventricular fibrillation and cardiac arrest.

Acute toxicity, mouse = settings: in vivo, po
[3] = test system: spontaneously-beating atrial muscle; assay: Cardiotonic effects: contractile force and heart rate of isolated spontaneously beating atria; design: species or system Hartley male guinea pig; settings: cumulative
Method: The heart of a Hartley male guinea pig having a body weight of 500-800 g was removed. Its atrial muscles were isolated in Krebs-Henseleit's solution. A spontaneously-beating atrial muscle was suspended, in a bath containing 20 ml of Krebs-Henseleit's solution gassed with 95% O2 +5% CO2 at 32° C. Thereafter, the contractile force and its heart rate were measured. After stabilization, test compounds which were dissolved in a small amount of 1N hydrochloric acid or 0.1N hydrochloric acid and then diluted with a physiological saline, were administered cumulatively ([…]) to evaluate effects on the contractile force. The maximum percent change in increase of the contractile force induced by test compounds was determined and regarded as an index for cardiotonic (positive inotropic) effects. Heart rate increasing or decreasing effects (positive or negative chronotropism) were also observed.

Acute toxicity, rat = settings: in vivo, po

SMILES | LD50 (Acute toxicity, mouse) | Chronotropy, % of Control (in parentheses) ([3]; 3 × 10^-5 g/ml) | Inotropy, % of Control ([3]; 3 × 10^-5 g/ml) | Chronotropy, % of Control (in parentheses) ([3]; 3 × 10^-6 g/ml) | Inotropy, % of Control ([3]; 3 × 10^-6 g/ml) | Chronotropy, % of Control (in parentheses) ([3]; 10^-4 g/ml) | Inotropy, % of Control ([3]; 10^-4 g/ml) | Chronotropy, % of Control (in parentheses) ([3]; 10^-5 g/ml) | Inotropy, % of Control ([3]; 10^-5 g/ml) | Chronotropy, % of Control (in parentheses) ([3]; 10^-6 g/ml) | Inotropy, % of Control ([3]; 10^-6 g/ml) | other results
Nc1cc2cccnc2c(N2CCOCC2)n1 [Compound No. 3, 6-amino-8-morpholino-1,7-naphthyridine] | – | – | – | – | – | – | – | – | – | – | – | Inhibition (%) ([1]; 100 mg/kg): 55.0%
Nc1cc2cccnc2c(N2CCN(CCO)CC2)n1 [Compound No. 4] | > 1000 mg/kg | – | – | – | – | – | – | – | – | – | – | Inhibition (%) ([1]; 30 mg/kg): 54.0%; amount of ouabain required to induce unequal intervals of R-R wave [2]: 59.1 µg/kg; amount of ouabain required to induce ventricular extrasystole or A-V block [2]: 78.9; amount of ouabain required to induce ventricular fibrillation [2]: 216.5; amount of ouabain required to induce cardiac arrest [2]: 277.5
CC(=O)Nc1cc2cccnc2c(NCCCO)n1 [Compound No. 8] | – | 6.8% | 33.4% | 2.7% | 9.6% | 12.9% | 64.1% | 4.0% | 16.4% | 1.1% | 4.1% | –
CC(=O)Nc1cc2cccnc2c(NCc2cccnc2)n1 [Compound No. 13] | > 500 mg/kg | 1.9% | 52.3% | 1.6% | 8.7% | -11.8% | 92.9% | 3.1% | 24.6% | 0.2% | 2.6% | –
CC(=O)Nc1cc2cccnc2c(N(C)C)n1 [Compound No. 16] | > 500 mg/kg | 7.0% | 36.8% | 1.6% | 4.5% | 19.0% | 103.2% | 3.3% | 12.5% | – | – | –
CC(=O)Nc1cc2cccnc2c(N2CCN(CCO)CC2)n1 [Compound No. 22, 6-acetamido-8-[4-(2-hydroxyethyl)-1-piperazinyl]-1,7-naphthyridine] | 1600 mg/kg | – | – | – | – | – | – | – | – | – | – | Inhibition (%) ([1]; 10 mg/kg): 42.4%; amount of ouabain required to induce unequal intervals of R-R wave [2]: 69.6 µg/kg; amount of ouabain required to induce ventricular extrasystole or A-V block [2]: 109.6; amount of ouabain required to induce ventricular fibrillation [2]: 285.4; amount of ouabain required to induce cardiac arrest [2]: 399.3; LD50 (Acute toxicity, rat): > 3000 mg/kg
CNc1nc(NC(C)=O)cc2cccnc12 [compound 5] | – | 8.6% | 29.0% | 3.6% | 8.6% | 13.0% | 59.1% | 5.9% | 12.9% | 1.7% | 4.7% | –
CC(=O)Nc1cc2cccnc2c(NCC(O)CO)n1 (stereo not drawn) [compound 9] | – | – | – | – | – | – | – | – | – | – | – | Inhibition (%) ([1]; 30 mg/kg): 27.1%
CC(=O)Nc1cc2cccnc2c(N2CCN(C)CC2)n1 [compound 19] | – | – | – | – | – | – | – | – | – | – | – | amount of ouabain required to induce unequal intervals of R-R wave [2]: 68.9 µg/kg; amount of ouabain required to induce ventricular extrasystole or A-V block [2]: 146.0; amount of ouabain required to induce cardiac arrest [2]: 392.1
CCCCCCCC(=O)Nc1cc2cccnc2c(N2CCN(CCO)CC2)n1 [compound 25] | – | – | – | – | – | – | – | – | – | – | – | Inhibition (%) ([1]; 10 mg/kg): 44.6%
CCOc1nc(NC(C)=O)cc2cccnc12 [compound 34] | – | 25.7% | 38.7% | 10.3% | 13.3% | 46.0% | 89.2% | 18.5% | 24.9% | 5.3% | 6.3% | –
